Consider 44 compounds from ChEMBL document CHEMBL3044657, “Identification of an antiepileptic lead compound with a more selective activity and its analogues for GABA-AT using in silico approach” (2013).

Activity calls are given as the source filed them. The rule behind the calls is not given here.

One assay is filed under the species Mus musculus. Description: Antiepileptic activity in Mus musculus (mouse) assessed as minimum dose required to protect half or more number of animals against maximal electroshock-induced seizures after 0.5 hr. The class given is functional. The settings on record: read-out: MED. (In the maximal electroshock model the usual endpoint is tonic extension of the hind limbs.)
Turning to `O=C(NN=C1c2ccccc2C(=O)c2ccccc21)Nc1ccc([N+](=O)[O-])cc1`, the minimal effective dose stood at 300 mg/kg.

Take `O=c1snc(Nc2ccccn2)n1-c1ccccn1`: the minimal effective dose was 300 mg/kg. On the same count and under the same terms, to `CCOc1ccc(Nc2nsc(=O)n2-c2ccc(OCC)cc2)cc1` belongs 100 mg/kg.

As to `CCOc1ccc(NC(=O)N/N=C(\C)c2ccccc2O)cc1`, the minimal effective dose was found to be 100 mg/kg.

Turning to `CCOc1ccc(NC(=O)N/N=C(\C)c2ccc(O)cc2)cc1`, the minimal effective dose was 100 mg/kg. Consider `c1ccc2c(NC3=NSC(Nc4cccc5ccccc45)N3)cccc2c1` (centres undefined), for which the minimal effective dose amounted to 100 mg/kg. With `Cc1ccc(NC(=S)Nc2ccc(S(=O)(=O)Nc3ccc(Cl)cc3)cc2)cc1`, the minimal effective dose came out at 100 mg/kg. The same measure, in the same setting: with `Cc1ccc(NC(=S)Nc2ccc(S(=O)(=O)Nc3ccc(C)cc3)cc2)cc1` the figure was 300 mg/kg; with `COc1cc(/C=N/NC(=O)Nc2ccc(Br)cc2)ccc1O`, 300 mg/kg.

As to `O=C1C=CC(=NNC(=O)Nc2ccc([N+](=O)[O-])cc2)C=C1`, the minimal effective dose was 300 mg/kg. On the same count and under the same terms, with `Fc1ccc(NC2=NSC(Nc3ccc(F)cc3)N2)cc1` (centres undefined) the figure was 100 mg/kg. On the same count and under the same terms, to `O=c1snc(Nc2cccc3ccccc23)n1-c1cccc2ccccc12` belongs 100 mg/kg; to `O=c1snc(Nc2ccncc2)n1-c1ccncc1`, 300 mg/kg. The same measure, in the same setting: with `O=C(N/N=C/c1ccccc1[N+](=O)[O-])Nc1ccc(Br)cc1` the figure was 300 mg/kg. For `C/C(=N\NC(=O)Nc1ccc(Br)cc1)c1ccccc1`, the minimal effective dose was determined as 100 mg/kg.

In the case of `CCOc1ccc(NC(=O)N/N=C(\C)CC(C)=O)cc1`, the minimal effective dose is 100 mg/kg. For `CN(C)c1ccc(/C=N/NC(=O)Nc2ccc(Br)cc2)cc1`, the minimal effective dose was 300 mg/kg. The same measure, in the same setting: to `O=c1snc(Nc2ncccn2)n1-c1ncccn1` belongs 300 mg/kg; to `C/C(=N\NC(=O)Nc1ccc(Br)cc1)c1ccc(N)cc1`, 300 mg/kg. For the compound `O=C(NN=C(c1ccccc1)c1ccccc1)Nc1ccc(Br)cc1`, the minimal effective dose turned out to be 300 mg/kg. In the case of `CCOc1ccc(NC(=O)N/N=C/c2ccccc2O)cc1`, the minimal effective dose is 300 mg/kg.

As to `c1ccc(NC2=NSC(Nc3ccccn3)N2)nc1` (centres undefined), the minimal effective dose was determined as 300 mg/kg. Same read-out and setting: to `CCOc1ccc(NC(=O)N/N=C/c2ccccc2Cl)cc1` belongs 100 mg/kg; to `CNC(=S)Nc1ccc(S(=O)(=O)Nc2nc3ccc(F)cc3s2)cc1`, 300 mg/kg.

On to `CNC(=S)Nc1ccc(S(=O)(=O)Nc2nc3ccc(OC)cc3s2)cc1`, for which the minimal effective dose came to 300 mg/kg.

Take `CCOc1ccc(NC(=O)N/N=C(\C)CC(C)C)cc1`: the minimal effective dose was 100 mg/kg. Regarding `Cc1ccc(NC(=S)Nc2ccc(S(=O)(=O)Nc3ccc(Br)cc3)cc2)cc1`, the minimal effective dose came out at 100 mg/kg.

Regarding `O=C(N/N=C/c1ccccc1Cl)Nc1ccc(Br)cc1`, the minimal effective dose amounted to 300 mg/kg. Same read-out and setting: to `CNC(=S)Nc1ccc(S(=O)(=O)Nc2ccc(Cl)cc2)cc1` belongs 300 mg/kg; to `C/C(=N\NC(=O)Nc1ccc(Br)cc1)c1ccc([N+](=O)[O-])cc1`, 300 mg/kg; to `CCOc1ccc(NC(=O)N/N=C(\C)c2ccc(Cl)cc2)cc1`, 300 mg/kg. `O=c1snc(Nc2cccnc2)n1-c1cccnc1`: the minimal effective dose was 300 mg/kg.

As to `CCOc1ccc(NC2=NSC(Nc3ccc(OCC)cc3)N2)cc1` (centres undefined), the minimal effective dose was determined as 100 mg/kg. The same measure, in the same setting: with `COc1ccc(/C=N/NC(=O)Nc2ccc(Br)cc2)cc1OC` the figure was 300 mg/kg.

As for `CC(C)=NNC(=O)Nc1ccc([N+](=O)[O-])cc1`, the minimal effective dose turned out to be 300 mg/kg. For `O=c1snc(Nc2ccc(F)cc2)n1-c1ccc(F)cc1`, the minimal effective dose was found to be 100 mg/kg. As to `CNC(=S)Nc1ccc(S(=O)(=O)Nc2ccc(Br)cc2)cc1`, the minimal effective dose was 300 mg/kg. As for `c1cc(NC2=NSC(Nc3ccncc3)N2)ccn1` (centres undefined), the minimal effective dose stood at 300 mg/kg. Still for that read-out and setting: to `C/C(=N\NC(=O)Nc1ccc(Br)cc1)c1ccc(O)cc1` belongs 300 mg/kg. As to `c1cncc(NC2=NSC(Nc3cccnc3)N2)c1` (centres undefined), the minimal effective dose amounted to 300 mg/kg. On the same count and under the same terms, with `CCNC(=S)Nc1ccc(S(=O)(=O)Nc2nc3ccc(F)cc3s2)cc1` the figure was 300 mg/kg.

The subject of a further assay is Mus musculus. Description: Antiepileptic activity in Mus musculus (mouse) assessed as protection against maximal electroshock-induced seizures at 300 mg/kg after 0.5 hr. It counts as functional, organism-based. More on the design: dose 300 mg/kg.
Conditions: not given
Turning to `CCNC(=S)Nc1ccc(S(=O)(=O)Nc2nc3ccc(Cl)cc3s2)cc1`, the result was inactive.

As to `CNC(=S)Nc1ccc(S(=O)(=O)Nc2nc3ccc(Cl)cc3s2)cc1`, the outcome was inactive. On to `C/C(=N\NC(=O)Nc1ccc(Br)cc1)c1ccc(C)cc1`, for which the outcome was inactive.
